Laboratory results taken from patent publication US20260272850A1, “Cannabinoid Dosing Regime for Acne” (priority 2018, published 2026).
Where two headings read alike, the source gives them in different places.

What was measured:
[1] = Franz-type diffusion cell skin permeation of CBD from BTX 1503 5% Solution; assay type: in vitro ADME; details: 48 hours; equivalent of ng/g of tissue
Procedure: Dermatomed skin from a single donor was mounted in a Franz-type diffusion cell (0.55 cm^2 receptor fluid exposure surface area) and dosed with 5 ul of 2-[3-methyl-6-(1-methylethenyl)-2-cyclohexen-1-yl]-5-pentyl-1,3-benzenediol (CBD), BTX 1503 5% Solution, formulated in an mixture of a volatile solvent (hexylmethyldisiloxane/polymethylsiloxane—93% w/w), and residual solvent (arlamol E—2% w/w) at a concentration of 5.0% (w/w; 35.5 mg/ml). Following dosing, receptor phase samples were collected at 4, 10, 24 and 48 hours; after which the study was terminated.
The residual formulation was removed by tape stripping and the epidermis and dermis separated by blunt dissection. The levels of CBD in the epidermis, dermis, and receptor fluid samples were then analyzed using a bioanalytical method with LC-MS/MS detection.

[2] = Healthy volunteer study of single and multiple-dose BTX 1503 5% Solution (BTX.2017.001): pharmacokinetics; assay type: in vivo, human (healthy volunteers); details: for Tmax: Day 1; for Cmax: topical or ocular, topical, Day 1, plasma CBD, read-out: mean Cmax after the first dose
Procedure: The pharmacokinetics (PK) of single and multiple-dose administration of BTX 1503 5% Solution were evaluated in a healthy volunteer study. In this study, BTX 1503 5% Solution was applied as a single dose either QD or BID (12 hrs apart) on Day 1 followed by a 6-day washout period, then either QD or BID for 14 days (Day 8 to Day 21). Five subjects were enrolled in each cohort and doses were escalated for each sequential cohort enrolled with the following doses. • Cohort 1: 37.5 mg CBD/day or 0.066 mg/cm^2/day applied as 1 mL of BTX 1503 5% (w/w) QD • Cohort 2: 75 mg CBD/day or 0.133 mg/cm^2/day applied as 1 mL BTX 1503 5% (w/w) BID • Cohort 3: 112.5 mg CBD/day or 0.199 mg/cm^2/day applied as 3 mL of BTX 1503 5% (w/w) QD • Cohort 4: 225 mg CBD/day or 0.398 mg/cm^2/day applied as 3 mL of BTX 1503 5% (w/w) BID Area of application assumed to be 565 cm^2 (i.e., on the face), which is reported by the European Union Scientific Committee on Consumer Safety (SCCS) to be half of the surface area for a female head (SCCS Notes of Guidance for the Testing of Cosmetic Substances and Their Safety Evaluation, 8th edition, 2012; Table 2).
Blood samples were taken for PK assessments on Day 1 (Baseline) at pre-dose (15 mins before dosing), 30, 60 and 90 mins and 2, 2.5, 3, 4, 6, 8 and 12 hrs, and 24 hrs after the first single dose. For participants that received BID dosing, samples were also taken at 30, 60 and 90 mins and 2, 2.5, 3, 4, 6, and 8 hrs after the second dose on Day 1.
During the multiple dose (14-day) phase, trough levels were obtained before the morning application on Day 15. On Day 21, blood samples were taken for PK assessments at pre-dose (15 mins before dosing), 30, 60 and 90 mins and 2, 2.5, 3, 4, 6, 8 and 12 hrs, 24 hrs and 48 hrs after the morning dose. For participants that received BID dosing, samples were also be taken at 30, 60 and 90 mins and 2, 2.5, 3, 4, 6, and 8 hrs after the second dose on Day 21. A sample was obtained on Day 23, 48 hrs after the last morning dose.

skin of minipigs = test: 28-day study in minipigs: dermal tolerability and exposure; assay type: in vivo; details: no observed effect in minipigs
Procedure: This dose level is well below that tested and shown to be well-tolerated in a 28-day study in minipigs. Specifically, the NOAEL for dermal tolerability of BTX 1503 5% (w/w) on the skin of minipigs was 3.0 mg/cm^2/day (150 mg/kg/day), which is ~7.5 times the daily dose delivered in this study. In addition, based on the ratio of the mean Cmax observed in the 28-day minipig study to the mean Cmax in the 3 mL BID cohort in the Phase 1 a healthy volunteer study, there was >300 times the level of CBD, with no observed effect, in the minipigs.

[3] = Open-label study in patients with acne vulgaris: study drug (CBD) plasma levels; assay type: in vivo, human; details: throughout the study, 225 mg CBD/day topical
Text: Subjects returned to the clinic on Day 14 for vital signs, cutaneous tolerability assessments, and a blood draw for study drug plasma levels. Subjects were also queried for adverse events (AEs) and changes in concomitant medications. Diaries and study drug were returned and reviewed for compliance. In addition, the subject applied their morning dose of study drug during the visit for the clinical site to confirm correct application techniques. Another 14 days of study drug were dispensed along with the diary for the last two weeks of study drug treatment. […]
Safety was the primary outcome measure. The safety outcomes were measured through assessment of: • AEs monitored from time of consent through the end of study. • Cutaneous tolerability (erythema, scaling, dryness, burning/stinging, and irritant/allergic contact dermatitis) collected at Baseline, Day 14, Day 28, and Day 35 and graded using the following scale: 0, None; 1, Slight; 2, Moderate; 3, Severe. • Vital signs (temperature, blood pressure, and pulse) obtained at Baseline, Day 14, Day 28 and Day 35. • Complete blood count (CBC), chemistry, and urinalysis at Baseline and at Day 28. Blood levels of study drug will be measured at Baseline and prior to dosing (trough level) on Day 14, Day 28, and Day 35. […]

[4] = tested on: immortalized human sebocytes; details: cited from earlier work
[5] = target: human vanilloid receptor type 1 (VR1) (Homo sapiens, UniProt Q8NER1); details: in vitro; cited from earlier work
Chain of human vanilloid receptor type 1 (VR1) (Q8NER1 whole entry): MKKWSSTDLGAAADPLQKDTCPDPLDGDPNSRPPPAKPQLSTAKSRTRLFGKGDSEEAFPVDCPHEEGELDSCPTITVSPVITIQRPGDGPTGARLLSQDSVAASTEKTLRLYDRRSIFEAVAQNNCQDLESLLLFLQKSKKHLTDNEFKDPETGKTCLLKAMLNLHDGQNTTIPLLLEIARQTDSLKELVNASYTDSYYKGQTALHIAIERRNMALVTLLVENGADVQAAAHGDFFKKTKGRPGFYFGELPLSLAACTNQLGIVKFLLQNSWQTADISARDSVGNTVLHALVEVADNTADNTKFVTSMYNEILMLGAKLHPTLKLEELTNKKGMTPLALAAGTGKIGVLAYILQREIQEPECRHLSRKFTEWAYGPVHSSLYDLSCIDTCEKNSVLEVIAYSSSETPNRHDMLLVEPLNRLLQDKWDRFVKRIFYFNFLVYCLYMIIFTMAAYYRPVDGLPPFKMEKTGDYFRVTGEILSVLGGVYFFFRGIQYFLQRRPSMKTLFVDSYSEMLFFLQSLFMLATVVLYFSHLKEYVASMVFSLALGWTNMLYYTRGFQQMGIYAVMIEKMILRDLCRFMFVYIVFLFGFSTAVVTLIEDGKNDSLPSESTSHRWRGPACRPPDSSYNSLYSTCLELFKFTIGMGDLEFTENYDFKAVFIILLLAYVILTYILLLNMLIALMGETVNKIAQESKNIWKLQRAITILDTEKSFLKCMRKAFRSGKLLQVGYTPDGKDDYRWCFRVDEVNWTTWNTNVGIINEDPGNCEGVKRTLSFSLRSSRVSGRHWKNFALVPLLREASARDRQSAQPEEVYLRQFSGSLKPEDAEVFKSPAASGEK

sensitized guinea-pigs = details: intravenous administration; cited from earlier work
rats = details: injected; cited from earlier work

For `C=C(C)C1CCC(C)=CC1c1c(O)cc(CCCCC)cc1O` (centres unmarked) [CBD, 2-[3-methyl-6-(1-methylethenyl)-2-cyclohexen-1-yl]-5-pentyl-1,3-benzenediol], the dermis concentration [1] was ~ 1,933 ng/mL, the “mean pre-dose level on Day 21” value ([2]; Cohort 1) was 0.545 ng/mL and the “mean pre-dose level on Day 21” value ([2]; Cohort 2) was 0.770 ng/mL. The “mean pre-dose level on Day 21” value ([2]; Cohort 3) was 0.715 ng/mL, the “mean pre-dose level on Day 21” value ([2]; Cohort 4) was 1.553 ng/mL and the concentration at 15 study day ([2]; human, in vivo, 75 mg CBD/day, Cohort 2, 75 mg CBD/day, multiple dose phase, read-out: mean CBD trough level on Day 15) was 0.781 ng/mL. For the same compound, the concentration at 15 study day ([2]; human, in vivo, 112.5 mg CBD/day, Cohort 3, 112.5 mg CBD/day, multiple dose phase, read-out: mean CBD trough level on Day 15) was 0.525 ng/mL, the concentration at 15 study day ([2]; human, in vivo, 225 mg CBD/day, Cohort 4, 225 mg CBD/day, multiple dose phase, all subjects, read-out: mean CBD trough level on Day 15) was 2.11 ng/mL and the concentration at 15 study day ([2]; human, in vivo, 225 mg CBD/day, Cohort 4, one outlier, read-out: CBD trough level on Day 15, outlier subject) was 5.99 ng/mL. For the same compound, the concentration at 15 study day ([2]; human, in vivo, 225 mg CBD/day, Cohort 4, without the outlier subject, read-out: mean CBD trough level on Day 15) was 1.16 ng/mL, the Tmax ([2]; human, in vivo, after BID dosing) was 18 to 20 h and the Tmax ([2]; human, in vivo, after QD dosing) was 12 h. The concentration at 7 days ([2]; human, in vivo, all cohorts, study Day 8, seven days after initial dosing, read-out: Levels of CBD (below the limits of quantitation)) was < 0.2 ng/mL, the Cmax ([2]; human, in vivo, Cohort 1: 37.5 mg CBD/day, 1 mL BTX 1503 5% QD) was 0.309 ng/mL and the Cmax ([2]; human, in vivo, Cohort 2: 75 mg CBD/day, 1 mL BTX 1503 5% BID) was 0.562 ng/mL. For the same compound, the Cmax ([2]; human, in vivo, Cohort 3: 112.5 mg CBD/day, 3 mL BTX 1503 5% QD) was 0.626 ng/mL, the Cmax ([2]; human, in vivo, Cohort 4: 225 mg CBD/day, 3 mL BTX 1503 5% BID) was 0.876 ng/mL and the “ratio of mean Cmax in 28-day minipig study to mean Cmax in 3 mL BID healthy volunteer cohort” value (skin of minipigs) was > 300 times. For the same compound, the “Study drug (CBD) plasma levels” value [3] was “low”, the effects on sebocytes [4] was “lipostatic, anti-proliferative, and anti-inflammatory effects” and the “effect on VR1” value [5] was “stimulate”. For the same compound, the “effect on airway obstruction” value (sensitized guinea-pigs) was “reduced airway obstruction” and the “effect on cardiac inflammation” value (rats) was “attenuated cardiac inflammation”.
